# Experimental data: patent US20030211076A1, “Compositions and methods for treatment of proliferative disorders” (priority 2003, published 2003)
# Entries after “also recorded” stand apart in the source; their conditions may differ.
# Columns and labels:
# [1] = test system: porcine pulmonary arterial vascular endothelial cells (VEC); test: Growth of Tat-stimulated vascular endothelial cells (cell counting, phase-contrast microscopy); type: cell-based
# Method: Stimulation of cell proliferation of porcine pulmonary arterial vascular endothelial cells (VEC) was tested with LO-oxidized Tat. VEC (2×10^4) were plated and incubated overnight in 35 mm-dishes containing 2 ml 15% FBS/M199 medium, and then refed with 5% FBS/M199 with different treatment regimens as shown in A, B and C of FIG. 13. FIG. 13A represents a dose response of Tat-stimulated cell growth. Media were supplemented with Tat at the indicated doses and cells were incubated for additional 3 days. Cultures were refed once during the incubation period with fresh media supplemented with Tat at indicated doses. Cells were harvested by trypsinization and counted with a hemacytometer. FIG. 13B represents the LO inhibition of Tat-stimulated cell growth. FIG. 13C represents the effects of inactivation of LO by BAPN on Tat-stimulated cell growth. LO: 3 or 10 nM, Tat: 10 ng ml^−1, BAPN: 100 μM. Data represent the means (±sd) of three separate experiments each assessed with triplicate dishes.
# Numerical and morphological alterations in Tat-stimulated VEC cells treated with LO were observed under phase-contrast microscopy (25'). Cells were cultured as described in FIG. 13 and treated with additives as indicated below. The following represents FIG. 14 phase contrast microscopy: A, control; B, 10 ng ml^−1Tat; C, 10 ng ml^−1 Tat+3 nM LO; D, 10 ng ml^−1 Tat+3 nM LO that was preincubated with 100 μM BAPN for 15 min at 370; E, 100 μM BAPN, alone, and F, 3 nM LO, alone.
# [2] = test system: intracellular FGF2 in NIH 3T3 6-1 cells; test: Intracellular FGF2 crosslinking by LO, Western blotting with monoclonal anti-FGF2; type: cell-based, mouse
# Method: The possibility that exposure of cells to LO alters the physical state of intracellular FGF2 was assessed by Western blotting with monoclonal anti-FGF2 of cell lysates. Subconfluent NIH 3T3 and NIH 3T3 6-1 cells were incubated for 20 h in 0.3% FBS/DMEM with or without additives as indicated below. Cells were suspended by trypsin treatment and lysed. Aliquots of lysates containing 50 μg of cell protein were analyzed by Western blotting of SDS-PAGE electrophoretograms probing with monoclonal anti-FGF2 (FIGS. 11A and 11B). Total protein was visualized by Coomassie blue staining of SDS-PAGE electrophoretograms (FIG. 11C). FIG. 11A represents FGF2 expression in NIH 3T3 (lane 1) and NIH 3T3 6-1 cells (lane 2). FIG. 11B represents forms of intracellular FGF2 in NIH 3T3 6-1 cells incubated in the absence (lane 1) or presence of 25 nM LO (lane 2) or presence of 25 nM LO which had been preincubated with 100 μM BAPN for 15 min at 37° C. (lane 3). FIG. 11C represents the total protein profiles in control and LO-treated cells with treatments in each lane corresponding to those in FIG. 11B.
# [3] = test system: VEC on Matrigel; test: Angiogenic response of Tat-stimulated VEC on Matrigel; type: cell-based
# Method: VEC grown on Matrigel, a solid gel of basement membrane proteins, rapidly align and form capillary-like structures providing a convenient in vitro model for angiogenesis studies (Albini et al., 1995; Grant et al.). Tat has been reported to enhance this in vitro morphogenesis of VEC consistent with its angiogenic property (Albini et al., 1995).
# Cells (3×10^5) were plated on Matrigel-coated dishes. After 1 h incubation, various reagents were added to each culture. […] The following represents FIG. 15 phase-contrast microscopy: A, control; B, 10 ng ml^−1 Tat; C, 10 ng ml^−1 Tat+10 nM LO; D, 10 ng ml^−1 Tat+10 nM LO that was preincubated with 100 μM BAPN for 15 min at 370; E, 100 μM BAPN, alone, and F, 10 nM LO, alone.
# [4] = test system: transformed NIH 3T3 6-1 cells overexpressing FGF2; test: LO inhibition of tumor cell growth (cell counting, phase-contrast and fluorescent microscopy); type: cell-based, mouse
# Method: Transformed NIH 3T3 6-1 cells (2×10^4) overexpressing FGF2 were plated and incubated overnight in 35 mm-dishes containing 2 ml 10% fetal bovine serum (FBS)/Dulbecco's Modified Eagle's (DME) medium, and then refed with 0.3% FBS/DMEM with different treatment regimens as shown in FIGS. 9A and 9B. FIG. 9A represents a dose response. Cells were treated with LO at various doses for a total of 6 days. Cultures were refed with fresh media supplemented with LO, as indicated, every two days. After treatment, cells were harvested by trypsinization and counted with a hemacytometer. FIG. 9B represents the effects of inactivation of LO by BAPN on tumor cell growth. LO was present at 25 nM and BAPN at 200 μM as indicated. Data represent the means (±sd) of three separate experiments each assessed with triplicate dishes.
# Numerical and morphological alterations in tumor cells treated with LO were observed under phase-contrast microscopy (25×). FIG. 10 comprises the following: A, control; B, 25 nM LO; C, 25 nM LO+200 μM BAPN; D, 200 μM BAPN alone; and E and F, LO uptake by NIH3T3 6-1 cells. In E and F, cells grown on coverslips were exposed to FITC-conjugated LO (0.16 μg/ml) for 2 h, then fixed and examined by fluorescent microscopy (100×).
# [5] = test system: porcine pulmonary arterial VEC; test: Growth of VEGF165-stimulated VEC (cell counting); type: cell-based
# Method: The effects of LO oxidized VEGF165 on cell proliferation was also assessed. VEGF165 is a potent mitogen for vascular endothelial cells (VEC). Porcine pulmonary arterial VEC (2×10^4) were plated and incubated overnight in 35 mm-dishes containing 2 ml 15% FBS/M199 medium, and then refed with 5% FBS/M199 with different treatment regimens as shown in A, B and C of FIG. 18. FIG. 18A represents a dose response of VEGF165-stimulated cell growth. Media were supplemented with VEGF165 at the indicated doses and cells were incubated for additional 3 days. Cultures were refed once during the incubation period with fresh media supplemented with VEGF165 at indicated doses. Cells were harvested by trypsinization and counted with a hemacytometer. FIG. 18B represents the LO inhibition of VEGF165-stimulated cell growth. FIG. 18C represents the effects of inactivation of LO by BAPN on VEGF165-stimulated cell growth. […] Data represent the means (±sd) of three separate experiments each assessed with triplicate dishes.
Compound,cell growth ([1]; 100 μM BAPN alone),"effect on LO inhibition of Tat-stimulated cell growth ([1]; 100 μM BAPN, LO 3 or 10 nM, Tat 10 ng/ml)",effect on LO-induced FGF2 oligomer formation ([2]; 25 nM LO preincubated with 100 μM BAPN for 15 min at 37° C.),effect on LO-mediated inhibition of the angiogenic response ([3]; 10 nM LO preincubated with 100 μM BAPN for 15 min),"proliferation relative to the control ([4]; 200 μM BAPN added with 25 nM LO, 6 days)","tumor cell growth relative to the control ([4]; 200 μM BAPN in the absence of added LO, 6 days)",effect on LO inhibition of VEGF165-stimulated VEC proliferation ([5]; 100 μM BAPN),"Tat-dependent cell proliferation ([1]; LO at 3 nM, Tat 10 ng/ml)","cell numbers ([1]; LO at doses ≧10 nM, Tat 10 ng/ml)","forms of intracellular FGF2 ([2]; 25 nM LO, 20 h)",Tat-stimulated morphogenesis of VEC ([3]; 10 ng/ml Tat + 10 nM LO),"decrease of cell number compared to the control (maximal inhibition) ([4]; 25 nM LO, 6 days, 0.3% FBS/DMEM)","numerical and morphological alterations in tumor cells ([4]; 25 nM LO, phase-contrast microscopy)",VEGF165-dependent cell growth ([5]; VEGF165 15 ng/ml)
"N#CCCN [BAPN, β-Aminopropionitrile, reference compound]",had no effect on the cell growth,totally inhibited; also recorded: cells sustained growth to confluence,prevented,not prevented,3 fold,2.5 fold,effectively blocked,,,,,,,
lysyl oxidase [LO],,,,,,,,effectively suppressed the Tat-dependent cell proliferation to the control level; also recorded: the growth stimulating ability of Tat was inhibited,severe loss in cell numbers below the control,induced the formation of crosslinked dimers and oligomers of FGF2 within the cells,effectively blocked,95%,induced cell death,inhibited VEGF165-dependent cell growth with increased doses
